Data from patent publication US20210161877A1, “GASTROPROTECTED, HYDROPHOBIC FORMULATION OF AT LEAST ONE ACTIVE PRINCIPLE AND METHOD FOR OBTAINING SAME” (priority 2018, published 2021).

Assays:
[1] = Test of gastroprotection and preliminary bioavailability on animals (oral administration); settings: rat, in vivo, fasted male Sprague-Dawley rats, 40 mg/kg of BZ
Method: Test of gastroprotection and preliminary bioavailability on animals. In this test, the protective capacity of the BZ-AT formulation according to the invention as described in this example and of an unprotected form of BZ are compared.
Each formulation is administered orally to male Sprague-Dawley rats weighing between 175-250 g. Tests are performed with pure BZ and the BZ-AT form taken up at 10 mg/ml in the following aqueous solution:
The volume that may be administered is adjusted as a function of each animal to enable a dose of 4 mL/kg to be achieved, i.e. 40 mg/kg of BZ. The administration is performed orally on the fasted animal.

[2] = Stability of the particles in 0.1 N hydrochloric acid solution, HPLC assay; type: physicochemical; settings: 0.1 N HCl medium at 25° C., 500 ml, 20 mg of BZ, 120 minutes of incubation; percentage of the initial dose
Method: Measurement of the stability of the particles in 0.1 N hydrochloric acid solution, via an HPLC assay method: • Column (ProntoSlL, Bischoff, Germany): C18, 5 μm, 120 Å, 4.6×150 mm, • Mobile phase: methanol, 65%/10 mM Na2HPO4, 35%, • Flow rate: 1.00 mL/min, • Temperature: 20° C. (thermostat), • Detection: UV (λ=310 nm) • Injection volume: 20 μL.
The stability is measured in 0.1 N HCl medium at 25° C., for a volume of 500 ml and 20 mg of BZ. The results collated in FIG. 2 are expressed as a percentage of the initial dose.

- AUC [1]: < 5 ng·h/mL
- Cmax [1]: 2.54 ng/mL
- Tmax [1]: 48 min
- degradation [2]: 100%
SMILES: COCCCOc1ccnc(C[S+]([O-])c2nc3ccccc3[nH]2)c1C (stereo not shown) [BZ, 2-([4-(3-methoxypropoxy)-3-methylpyridin-2-yl]methylsulfinyl)-1H-benzo[d]imidazole]
